Tests used:
PPARγ = experiment: Expression of PPARγ in HEK293 cells treated with LPS and dipyridamole (Western blot of nuclear proteins); type: cell-based, human
Experimental: The cell line used in the assay was human embryonic kidney cells, HEK293. The cells were collected at 0 h, 3 h and 12 h after treatment. The collected cells were washed with 150 μL Buffer A (10 mM Hepes pH=7.9, 1.5 mM MgCl2, 10 mM KCl, 1.0 mM DTT, 0.1% Triton-X 100), and centrifuged at 3000 g for 10 minutes at 4° C. Supernatant containing cytosolic proteins was collected, and the pellets were re-suspended with 50 μL Buffer B (20 mM Hepes pH=7.9, 1.5 mM MgCl2, 0.42M NaCl, 1.0 mM DTT, 1.0M PMSF, 0.2 mM EDTA) and incubated on ice for 30 minutes followed by centrifuging at 12000 g for 10 minutes at 4° C. Supernatant containing nucleic proteins was then collected, and the expression of P65 protein, which is indicative of the activation of PPARγ, was analyzed using Western blotting. The method is as follows: Protein concentration was measured using Bradford assay. 6× sample buffer (0.8 mM Tris-HCl, 10 mM EDTA, 10% SDS, 60% glycerol, 0.6 M β-mercaptoethano, 0.06% bromophenol blue, pH 6.8) was added into 50 μg of nuclear proteins and an equal volume of lysis buffer was added into the samples. After being heated at 95° C. for 10 minutes to denature the proteins, the samples were immediately cooled on ice. […] Photos of the images were taken using automated chemiluminescence and fluorescence imaging system (UVP Biospectrum). […]

[1] = system: mice with LPS-induced sepsis; experiment: Survival rate analysis in mice with LPS-induced sepsis; type: in vivo; settings: high dose
Experimental: Male C57Bl/6J mice, 8-12 weeks of age, were used in this study. They were reared in an air-conditioned environment with 6 am to 18 pm light cycle and fed standard rodent chow ad libitum. […] First, mice were injected intraperitoneally with LPS (16 mg/kg) and followed for 72 hours to observe the survival rate.

[2] = Non-invasive blood pressure measurement in mice after intravenous administration; settings: high dose

OCCN(CCO)c1nc(N2CCCCC2)c2nc(N(CCO)CCO)nc(N3CCCCC3)c2n1 [dipyridamole]
PPARγ expression and nuclear translocation (PPARγ): promote PPARγ expression and nuclear translocation
effect on physiological conditions and survival rate [1]: influences physiological conditions and survival rate
effect on blood pressure [2]: leads to changes in blood pressure

Reference: patent publication US12178817B2, “Compounds for enhancing PPARγ expression and nuclear translocation and therapeutic use thereof” (REALINN LIFE SCIENCE LIMITED, priority 2015, dated 2024)
